Laboratory results from article PMC1790865, “Plant Carbohydrate Scavenging through TonB-Dependent Receptors: A Feature Shared by Phytopathogenic and Aquatic Bacteria” (PLoS ONE, 2007).

Assays:
[1] = target: T1, SuxA (XCC3358 TonB-dependent receptor) (Xanthomonas campestris, UniProt Q8P5I3); assay: […]sucrose concentration-dependent uptake in whole wild-type cells (Scatchard, high-affinity phase); uptake lost in suxA deletion mutant and restored by complementation; assay type: cell-based
T1 construct: gene fyuA

[2] = target: T2, SuxC (XCC3357 inner membrane sugar transporter) (Xanthomonas campestris, UniProt Q8P5I4); assay: […]sucrose concentration-dependent uptake in whole wild-type cells (Scatchard, slow phase); uptake lost in suxC insertion mutant; assay type: cell-based
T2 construct: gene suc1
T2 sequence (Q8P5I4 entry or part of it): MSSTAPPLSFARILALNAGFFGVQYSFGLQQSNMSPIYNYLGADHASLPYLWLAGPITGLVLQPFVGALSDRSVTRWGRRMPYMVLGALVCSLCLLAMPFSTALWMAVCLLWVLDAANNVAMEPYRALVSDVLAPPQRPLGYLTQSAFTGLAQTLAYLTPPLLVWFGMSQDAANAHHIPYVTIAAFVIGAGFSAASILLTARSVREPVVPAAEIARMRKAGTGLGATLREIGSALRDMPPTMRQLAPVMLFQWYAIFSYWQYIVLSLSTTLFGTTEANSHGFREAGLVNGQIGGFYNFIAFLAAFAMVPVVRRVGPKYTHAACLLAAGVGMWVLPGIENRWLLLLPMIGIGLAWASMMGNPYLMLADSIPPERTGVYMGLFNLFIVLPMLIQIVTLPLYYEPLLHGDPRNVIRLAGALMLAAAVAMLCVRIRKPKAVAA

T1 sequence (Q8P5I3 entry or part of it): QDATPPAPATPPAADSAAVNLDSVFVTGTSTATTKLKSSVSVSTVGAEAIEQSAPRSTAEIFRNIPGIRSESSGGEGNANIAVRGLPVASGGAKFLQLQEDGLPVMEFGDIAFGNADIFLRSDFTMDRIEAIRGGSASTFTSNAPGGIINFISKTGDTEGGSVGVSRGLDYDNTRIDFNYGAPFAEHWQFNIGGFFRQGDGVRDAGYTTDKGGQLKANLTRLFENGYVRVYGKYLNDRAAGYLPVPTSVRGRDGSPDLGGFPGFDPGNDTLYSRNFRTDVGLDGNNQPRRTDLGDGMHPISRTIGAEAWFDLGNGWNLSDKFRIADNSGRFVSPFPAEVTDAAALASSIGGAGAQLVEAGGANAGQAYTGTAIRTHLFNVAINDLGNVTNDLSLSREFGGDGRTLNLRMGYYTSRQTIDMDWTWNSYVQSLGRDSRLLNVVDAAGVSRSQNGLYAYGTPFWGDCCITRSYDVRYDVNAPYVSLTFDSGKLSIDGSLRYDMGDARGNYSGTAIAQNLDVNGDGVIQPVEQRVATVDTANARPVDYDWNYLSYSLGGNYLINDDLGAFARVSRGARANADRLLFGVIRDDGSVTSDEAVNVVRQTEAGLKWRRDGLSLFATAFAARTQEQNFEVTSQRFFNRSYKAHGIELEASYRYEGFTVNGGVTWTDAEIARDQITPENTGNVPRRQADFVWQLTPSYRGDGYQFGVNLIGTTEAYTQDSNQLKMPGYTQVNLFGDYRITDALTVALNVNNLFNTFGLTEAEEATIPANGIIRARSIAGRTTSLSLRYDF

OC[C@H]1O[C@@](CO)(O[C@H]2O[C@H](CO)[C@@H](O)[C@H](O)[C@H]2O)[C@@H](O)[C@@H]1O [sucrose]
Kd [1]: 33 nM | Kd [2]: 590 nM
